Assays:
[1] = target: Core antigen (Hepatitis B virus) (UniProt Q03732); experiment: Inhibition of hepatitis B virus capsid assembly infected in human HepG2.215 cells assessed as reduction in viral DNA replication measured on day 7 by real time PCR analysis; assay type: cell-based
[2] = Cytotoxicity in human HepG2.215 cells assessed as reduction in cell viability after 5 days by CCK8 assay; assay type: cell-based, HepG2 2.2.15; settings: HepG2.2.15 cells
Trypsin (Homo sapiens) = Trypsin (Homo sapiens) (UniProt P07477+P07478+P35030); experiment: Inhibition of trypsin (unknown origin) at 1 uM; assay type: protein assay
[3] = Drug uptake in beagle dog liver by LC/MS/MS analysis; assay type: ADME, tissue-based, Canis lupus familiaris; settings: in vivo
[4] = Drug uptake in beagle dog lung by LC/MS/MS analysis; assay type: ADME, tissue-based, Canis lupus familiaris; settings: in vivo
Mus musculus [5] = experiment: Biotransformation in po dosed mouse assessed as (R)-Ethyl 4-(2-bromo-4-fluorophenyl)-6-(morpholinomethyl)-2-(thiazol-2-yl)-1,4-dihydropyrimidine-5-carboxylate formation; assay type: ADME, organism-based; settings: in vivo
Mus musculus [6] = experiment: Biotransformation in po dosed mouse assessed as (S)-Ethyl 4-(2-bromo-4-fluorophenyl)-6-(morpholinomethyl)-2-(thiazol-2-yl)-1,4-dihydropyrimidine-5-carboxylate formation; assay type: ADME, organism-based; settings: in vivo
Canis familiaris [7] = experiment: Biotransformation in po dosed beagle dog assessed as (R)-Ethyl 4-(2-bromo-4-fluorophenyl)-6-(morpholinomethyl)-2-(thiazol-2-yl)-1,4-dihydropyrimidine-5-carboxylate formation; assay type: ADME, organism-based, Canis lupus familiaris; settings: in vivo
Canis familiaris [8] = experiment: Biotransformation in po dosed beagle dog assessed as (S)-Ethyl 4-(2-bromo-4-fluorophenyl)-6-(morpholinomethyl)-2-(thiazol-2-yl)-1,4-dihydropyrimidine-5-carboxylate formation; assay type: ADME, organism-based, Canis lupus familiaris; settings: in vivo
Canis familiaris [9] = experiment: Cmax in beagle dog at 5 mg/kg, po by LC/MS/MS analysis; assay type: ADME, organism-based, Canis lupus familiaris; parameters: dose 5 mg/kg, route oral; settings: in vivo
Canis familiaris [10] = experiment: Cmax in beagle dog at 15 mg/kg, po by LC/MS/MS analysis; assay type: ADME, organism-based, Canis lupus familiaris; parameters: dose 15 mg/kg, route oral; settings: in vivo
Canis familiaris [11] = experiment: Cmax in beagle dog at 45 mg/kg, po by LC/MS/MS analysis; assay type: ADME, organism-based, Canis lupus familiaris; parameters: dose 45 mg/kg, route oral; settings: in vivo
Canis familiaris [12] = experiment: Cmax in beagle dog at 15 mg/kg, po for 7 days by LC/MS/MS analysis; assay type: ADME, organism-based, Canis lupus familiaris; parameters: dose 15 mg/kg, route oral; settings: in vivo, 168 h
[13] = AUC (0 to 24 hrs) in beagle dog at 5 mg/kg, iv by LC/MS/MS analysis; assay type: ADME, organism-based, Canis lupus familiaris; parameters: dose 5 mg/kg, time < 24 hr, route intravenous; settings: in vivo
[14] = AUC (0 to 24 hrs) in beagle dog at 5 mg/kg, po by LC/MS/MS analysis; assay type: ADME, organism-based, Canis lupus familiaris; parameters: time < 24 hr, dose 5 mg/kg, route oral; settings: in vivo
[15] = AUC (0 to 24 hrs) in beagle dog at 15 mg/kg, po by LC/MS/MS analysis; assay type: ADME, organism-based, Canis lupus familiaris; parameters: dose 15 mg/kg, time < 24 hr, route oral; settings: in vivo
[16] = AUC (0 to 24 hrs) in beagle dog at 45 mg/kg, po by LC/MS/MS analysis; assay type: ADME, organism-based, Canis lupus familiaris; parameters: time < 24 hr, dose 45 mg/kg, route oral; settings: in vivo
[17] = AUC (0 to 24 hrs) in beagle dog at 15 mg/kg, po for 7 days by LC/MS/MS analysis; assay type: ADME, organism-based, Canis lupus familiaris; parameters: time < 24 hr, dose 15 mg/kg, route oral; settings: in vivo
[18] = Half life in beagle dog at 5 mg/kg, iv by LC/MS/MS analysis; settings: in vivo
[19] = Half life in beagle dog at 5 mg/kg, po by LC/MS/MS analysis; settings: in vivo
[20] = Clearance in beagle dog at 5 mg/kg, iv by LC/MS/MS analysis; assay type: ADME, organism-based, Canis lupus familiaris; settings: in vivo
[21] = Volume of distribution at steady state in beagle dog at 5 mg/kg, iv by LC/MS/MS analysis; assay type: ADME, organism-based, Canis lupus familiaris; settings: in vivo, read-out: Vdss
[22] = Drug uptake in beagle dog heart by LC/MS/MS analysis; assay type: ADME, tissue-based, Canis lupus familiaris; settings: in vivo
[23] = Drug uptake in beagle dog brain by LC/MS/MS analysis; assay type: ADME, tissue-based, Canis lupus familiaris; settings: in vivo
[24] = target: 72 kDa type IV collagenase (Homo sapiens) (UniProt P08253); experiment: Inhibition of MMP2 (unknown origin) at 1 uM
Homo sapiens [25] = species: Homo sapiens; experiment: Inhibition of proteasome (unknown origin) at 1 uM
[26] = target: Disintegrin and metalloproteinase domain-containing protein 17 (Homo sapiens) (UniProt P78536); experiment: Inhibition of TACE (unknown origin) at 1 uM
[27] = target: Low molecular weight phosphotyrosine protein phosphatase (Homo sapiens) (UniProt P24666); experiment: Inhibition of ACP1 (unknown origin) at 1 uM
[28] = target: Bile acid receptor (Homo sapiens) (UniProt Q96RI1); experiment: Agonist activity at FXR (unknown origin) at 1 uM
[29] = target: Bile acid receptor (Homo sapiens) (UniProt Q96RI1); experiment: Antagonist activity at FXR (unknown origin) at 1 uM
[30] = target: Oxysterols receptor LXR-beta (Homo sapiens) (UniProt P55055); experiment: Agonist activity at LXRbeta (unknown origin) at 1 uM
[31] = target: Oxysterols receptor LXR-beta (Homo sapiens) (UniProt P55055); experiment: Antagonist activity at LXRbeta (unknown origin) at 1 uM
[32] = target: Sodium/potassium-transporting ATPase (Homo sapiens) (UniProt P05023+P14415+P05026+P50993+P54709+P13637+Q13733+P54710); experiment: Inhibition of Sodium/potassium-transporting ATPase (unknown origin) at 1 uM; assay type: protein-complex assay
[33] = target: Prostaglandin G/H synthase 1 (Homo sapiens) (UniProt P23219); experiment: Inhibition of COX-1 (unknown origin) at 1 uM
[34] = target: NAD-dependent protein deacetylase sirtuin-1 (Homo sapiens) (UniProt Q96EB6); experiment: Inhibition of SIRT1 (unknown origin) at 1 uM
Homo sapiens [35] = species: Homo sapiens; experiment: Inhibition of lipase (unknown origin) at 1 uM
[36] = target: Nitric oxide synthase, inducible (Homo sapiens) (UniProt P35228); experiment: Inhibition of iNOS (unknown origin) at 1 uM
Homo sapiens [37] = species: Homo sapiens; experiment: Inhibition of neural phospholipase (unknown origin) at 1 uM
[38] = target: RAC-alpha serine/threonine-protein kinase (Homo sapiens) (UniProt P31749); experiment: Inhibition of AKT1 (unknown origin) at 1 uM
[39] = target: Calcium/calmodulin-dependent protein kinase type II subunit delta (Homo sapiens) (UniProt Q13557); experiment: Inhibition of CAMK2D (unknown origin) at 1 uM
[40] = target: Death-associated protein kinase 1 (Homo sapiens) (UniProt P53355); experiment: Inhibition of DAPK1 (unknown origin) at 1 uM
[41] = target: Mitogen-activated protein kinase 3 (Homo sapiens) (UniProt P27361); experiment: Inhibition of ERK1 (unknown origin) at 1 uM
[42] = target: Protein kinase C alpha type (Homo sapiens) (UniProt P17252); experiment: Inhibition of PKCalpha (unknown origin) at 1 uM
[43] = target: Tyrosine-protein kinase ABL1 (Homo sapiens) (UniProt P00519); experiment: Inhibition of ABL1 (unknown origin) at 1 uM
[44] = target: Epidermal growth factor receptor (Homo sapiens) (UniProt P00533); experiment: Inhibition of EGFR (unknown origin) at 1 uM
[45] = target: Receptor-type tyrosine-protein kinase FLT3 (Homo sapiens) (UniProt P36888); experiment: Inhibition of FLT3 (unknown origin) at 1 uM
[46] = target: Tyrosine-protein kinase JAK2 (Homo sapiens) (UniProt O60674); experiment: Inhibition of JAK2 (unknown origin) at 1 uM
[47] = target: Proto-oncogene tyrosine-protein kinase Src (Homo sapiens) (UniProt P12931); experiment: Inhibition of SRC (unknown origin) at 1 uM
[48] = target: Tyrosine-protein kinase ZAP-70 (Homo sapiens) (UniProt P43403); experiment: Inhibition of ZA70 (unknown origin) at 1 uM
[49] = target: Adenosine receptor A1 (Homo sapiens) (UniProt P30542); experiment: Inhibition of adenosine receptor A1 (unknown origin) at 1 uM
[50] = target: Interleukin-8 receptors, CXCR1/CXCR2 (Homo sapiens) (UniProt P25025+P25024); experiment: Inhibition of CXCR1/2 (unknown origin) at 1 uM; assay type: protein assay
[51] = target: D(1A) dopamine receptor (Homo sapiens) (UniProt P21728); experiment: Inhibition of dopamine D1 receptor (unknown origin) at 1 uM
[52] = target: Platelet-activating factor receptor (Homo sapiens) (UniProt P25105); experiment: Inhibition of platelet-activating factor receptor (unknown origin) at 1 uM
[53] = target: Sodium-dependent serotonin transporter (Homo sapiens) (UniProt P31645); experiment: Inhibition of 5-Serotonin transporter (unknown origin) at 1 uM
Homo sapiens [54] = species: Homo sapiens; experiment: Inhibition of calcium channel (unknown origin) at 1 uM
[55] = Toxicity in beagle dog administered via oral gavage for 28 days; assay type: organism-based, Canis lupus familiaris; settings: in vivo
in vivo [56] = settings: beagle, dog, po, 15 mg/kg
Description: Half life in beagle dog at 15 mg/kg, po by LC/MS/MS analysis

in vivo [57] = settings: beagle, dog, po, 45 mg/kg
Description: Half life in beagle dog at 45 mg/kg, po by LC/MS/MS analysis

in vivo [58] = settings: beagle, dog, po, 15 mg/kg; remark: listed apart in the source
Description: Half life in beagle dog at 15 mg/kg, po for 7 days by LC/MS/MS analysis

in vivo [59] = settings: beagle, dog, po, 5 mg/kg
Hepatitis B virus [60] = experiment: Antiviral activity against telbivudine-resistant hepatitis B virus harboring reverse transcriptase M204I mutant infected in human Huh7 cells assessed as reduction in intracellular DNA levels measured on day 7 by real-time PCR analysis; assay type: functional, organism-based; settings: Huh-7, 168 h
Hepatitis B virus [61] = experiment: Antiviral activity against telbivudine-resistant hepatitis B virus harboring reverse transcriptase L180M/M204V double mutant infected in human Huh7 cells assessed as reduction in intracellular DNA levels measured on day 7 by real-time PCR analysis; assay type: functional, organism-based; settings: Huh-7, 168 h
Hepatitis B virus [62] = experiment: Antiviral activity against telbivudine-resistant hepatitis B virus harboring reverse transcriptase M204I mutant infected in human Huh7 cells assessed as reduction in secreted DNA levels measured on day 7 by real-time PCR analysis; assay type: functional, organism-based; settings: Huh-7, 168 h
Hepatitis B virus [63] = experiment: Antiviral activity against telbivudine-resistant hepatitis B virus harboring reverse transcriptase L180M/M204V double mutant infected in human Huh7 cells assessed as reduction in secreted DNA levels measured on day 7 by real-time PCR analysis; assay type: functional, organism-based; settings: Huh-7, 168 h
Hepatitis B virus [64] = experiment: Antiviral activity against telbivudine-resistant wild type hepatitis B virus infected in human Huh7 cells assessed as reduction in secreted DNA levels measured on day 7 by real-time PCR analysis; assay type: functional, organism-based; settings: Huh-7, 168 h

Oxysterols receptor LXR-beta (Homo sapiens), sequence (P55055 whole entry): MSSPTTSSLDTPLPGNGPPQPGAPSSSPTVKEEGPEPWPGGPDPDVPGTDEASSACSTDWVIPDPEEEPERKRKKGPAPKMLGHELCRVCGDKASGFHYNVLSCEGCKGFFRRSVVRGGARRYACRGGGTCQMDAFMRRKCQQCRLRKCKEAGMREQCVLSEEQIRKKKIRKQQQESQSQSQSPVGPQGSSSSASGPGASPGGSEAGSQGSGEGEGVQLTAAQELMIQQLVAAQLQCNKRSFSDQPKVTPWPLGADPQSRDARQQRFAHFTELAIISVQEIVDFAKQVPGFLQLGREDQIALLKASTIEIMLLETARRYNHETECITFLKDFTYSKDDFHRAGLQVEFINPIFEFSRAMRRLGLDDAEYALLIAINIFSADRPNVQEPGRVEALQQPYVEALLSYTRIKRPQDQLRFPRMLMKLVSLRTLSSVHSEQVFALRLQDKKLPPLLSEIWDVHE
Core antigen (Hepatitis B virus), sequence (Q03732 as listed by the source): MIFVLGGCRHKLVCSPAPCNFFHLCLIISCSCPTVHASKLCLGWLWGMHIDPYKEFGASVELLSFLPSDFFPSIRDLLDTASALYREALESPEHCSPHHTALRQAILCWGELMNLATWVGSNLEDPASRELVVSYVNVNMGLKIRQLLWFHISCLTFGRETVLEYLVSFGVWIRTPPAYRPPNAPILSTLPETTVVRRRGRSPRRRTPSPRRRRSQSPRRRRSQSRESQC
Bile acid receptor (Homo sapiens), sequence (Q96RI1 whole entry): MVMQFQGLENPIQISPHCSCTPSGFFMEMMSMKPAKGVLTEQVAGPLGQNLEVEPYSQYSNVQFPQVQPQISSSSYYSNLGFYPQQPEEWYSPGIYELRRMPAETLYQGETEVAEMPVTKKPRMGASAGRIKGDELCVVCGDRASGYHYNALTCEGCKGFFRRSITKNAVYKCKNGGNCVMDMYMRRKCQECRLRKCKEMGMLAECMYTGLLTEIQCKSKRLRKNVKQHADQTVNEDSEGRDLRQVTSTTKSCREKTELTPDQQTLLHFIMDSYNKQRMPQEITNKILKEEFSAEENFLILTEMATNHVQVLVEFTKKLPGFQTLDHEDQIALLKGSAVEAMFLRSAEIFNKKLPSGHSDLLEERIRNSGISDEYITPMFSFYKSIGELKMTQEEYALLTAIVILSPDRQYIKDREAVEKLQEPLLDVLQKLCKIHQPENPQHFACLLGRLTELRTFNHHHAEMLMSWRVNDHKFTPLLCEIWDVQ
Adenosine receptor A1 (Homo sapiens), sequence (P30542 whole entry): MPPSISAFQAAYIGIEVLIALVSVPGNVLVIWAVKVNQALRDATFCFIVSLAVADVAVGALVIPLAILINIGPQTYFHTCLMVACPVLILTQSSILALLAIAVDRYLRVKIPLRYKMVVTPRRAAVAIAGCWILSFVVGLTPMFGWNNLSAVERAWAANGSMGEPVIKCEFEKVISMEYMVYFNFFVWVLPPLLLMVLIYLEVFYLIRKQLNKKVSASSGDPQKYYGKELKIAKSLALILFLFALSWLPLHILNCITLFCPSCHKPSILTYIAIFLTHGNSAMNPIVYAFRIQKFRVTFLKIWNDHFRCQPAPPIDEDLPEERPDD
Sodium-dependent serotonin transporter (Homo sapiens), sequence (P31645 whole entry, looked up): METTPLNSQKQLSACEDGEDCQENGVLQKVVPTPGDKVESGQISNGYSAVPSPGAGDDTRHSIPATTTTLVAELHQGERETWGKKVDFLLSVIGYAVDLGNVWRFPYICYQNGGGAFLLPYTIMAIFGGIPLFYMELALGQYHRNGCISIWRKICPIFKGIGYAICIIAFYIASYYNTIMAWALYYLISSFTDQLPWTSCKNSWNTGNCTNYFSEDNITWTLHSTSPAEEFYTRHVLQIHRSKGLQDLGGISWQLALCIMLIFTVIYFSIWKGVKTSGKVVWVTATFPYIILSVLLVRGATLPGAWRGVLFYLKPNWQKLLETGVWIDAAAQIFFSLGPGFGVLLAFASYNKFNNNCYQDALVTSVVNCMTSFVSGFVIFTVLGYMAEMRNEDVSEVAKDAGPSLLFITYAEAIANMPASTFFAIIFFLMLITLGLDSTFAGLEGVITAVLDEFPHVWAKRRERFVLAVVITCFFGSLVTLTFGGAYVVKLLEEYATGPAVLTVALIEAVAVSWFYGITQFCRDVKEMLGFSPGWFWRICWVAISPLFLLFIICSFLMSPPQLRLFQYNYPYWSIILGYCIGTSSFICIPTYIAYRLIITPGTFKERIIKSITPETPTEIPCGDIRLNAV
RAC-alpha serine/threonine-protein kinase (Homo sapiens), sequence (P31749 whole entry): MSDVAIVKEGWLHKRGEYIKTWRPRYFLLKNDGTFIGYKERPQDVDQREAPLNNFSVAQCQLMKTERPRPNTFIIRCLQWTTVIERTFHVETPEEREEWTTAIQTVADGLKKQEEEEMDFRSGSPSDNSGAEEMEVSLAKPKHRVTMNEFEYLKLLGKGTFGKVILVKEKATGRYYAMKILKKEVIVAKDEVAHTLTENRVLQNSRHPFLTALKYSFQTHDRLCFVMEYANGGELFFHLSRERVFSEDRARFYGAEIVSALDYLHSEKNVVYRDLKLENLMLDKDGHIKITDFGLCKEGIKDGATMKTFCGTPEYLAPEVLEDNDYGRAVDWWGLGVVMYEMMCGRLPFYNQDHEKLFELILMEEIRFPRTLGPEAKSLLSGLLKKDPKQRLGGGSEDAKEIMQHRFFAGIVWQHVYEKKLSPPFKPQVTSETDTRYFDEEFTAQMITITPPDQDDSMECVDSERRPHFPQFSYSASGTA
Calcium/calmodulin-dependent protein kinase type II subunit delta (Homo sapiens), sequence (Q13557 whole entry): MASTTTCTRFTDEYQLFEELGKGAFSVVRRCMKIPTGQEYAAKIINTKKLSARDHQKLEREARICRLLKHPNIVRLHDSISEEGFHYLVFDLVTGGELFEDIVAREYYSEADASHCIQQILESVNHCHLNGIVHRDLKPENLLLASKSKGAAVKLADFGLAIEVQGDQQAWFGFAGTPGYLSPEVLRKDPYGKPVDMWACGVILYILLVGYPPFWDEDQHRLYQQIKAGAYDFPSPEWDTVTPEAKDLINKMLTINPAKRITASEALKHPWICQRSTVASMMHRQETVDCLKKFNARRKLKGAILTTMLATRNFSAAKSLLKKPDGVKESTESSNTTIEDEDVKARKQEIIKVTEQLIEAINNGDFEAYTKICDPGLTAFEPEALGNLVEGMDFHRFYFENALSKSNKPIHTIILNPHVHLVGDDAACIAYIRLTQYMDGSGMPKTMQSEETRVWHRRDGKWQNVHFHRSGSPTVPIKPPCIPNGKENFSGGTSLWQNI
Tyrosine-protein kinase JAK2 (Homo sapiens), sequence (O60674 whole entry): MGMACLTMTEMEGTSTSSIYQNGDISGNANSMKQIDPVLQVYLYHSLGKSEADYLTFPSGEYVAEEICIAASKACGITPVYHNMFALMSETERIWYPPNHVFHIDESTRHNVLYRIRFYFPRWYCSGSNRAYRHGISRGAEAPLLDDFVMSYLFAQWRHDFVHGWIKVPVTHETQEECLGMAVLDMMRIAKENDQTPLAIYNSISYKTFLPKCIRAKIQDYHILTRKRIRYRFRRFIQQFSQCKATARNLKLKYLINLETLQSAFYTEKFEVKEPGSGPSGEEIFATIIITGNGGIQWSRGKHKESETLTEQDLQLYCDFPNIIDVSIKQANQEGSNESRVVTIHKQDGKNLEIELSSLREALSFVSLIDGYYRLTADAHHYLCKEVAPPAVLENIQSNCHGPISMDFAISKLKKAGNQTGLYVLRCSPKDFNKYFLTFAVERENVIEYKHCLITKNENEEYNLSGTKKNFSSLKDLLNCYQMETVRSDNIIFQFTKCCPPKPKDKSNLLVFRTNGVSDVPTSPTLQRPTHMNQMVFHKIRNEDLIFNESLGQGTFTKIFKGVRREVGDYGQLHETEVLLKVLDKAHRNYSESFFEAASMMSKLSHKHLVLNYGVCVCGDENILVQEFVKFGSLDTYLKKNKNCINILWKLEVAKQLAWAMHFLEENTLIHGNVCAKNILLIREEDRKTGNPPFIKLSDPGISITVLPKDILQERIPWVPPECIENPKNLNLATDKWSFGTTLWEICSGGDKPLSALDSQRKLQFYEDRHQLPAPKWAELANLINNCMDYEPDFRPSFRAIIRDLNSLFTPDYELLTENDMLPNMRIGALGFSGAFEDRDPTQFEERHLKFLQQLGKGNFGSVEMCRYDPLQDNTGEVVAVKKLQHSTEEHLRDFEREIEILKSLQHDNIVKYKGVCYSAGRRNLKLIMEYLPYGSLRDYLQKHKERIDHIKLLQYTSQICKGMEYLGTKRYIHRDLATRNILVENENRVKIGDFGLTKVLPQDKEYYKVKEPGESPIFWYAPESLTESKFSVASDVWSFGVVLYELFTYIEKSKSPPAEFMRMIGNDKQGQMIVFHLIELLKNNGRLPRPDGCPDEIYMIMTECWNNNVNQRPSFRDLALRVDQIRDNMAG
NAD-dependent protein deacetylase sirtuin-1 (Homo sapiens), sequence (Q96EB6 whole entry): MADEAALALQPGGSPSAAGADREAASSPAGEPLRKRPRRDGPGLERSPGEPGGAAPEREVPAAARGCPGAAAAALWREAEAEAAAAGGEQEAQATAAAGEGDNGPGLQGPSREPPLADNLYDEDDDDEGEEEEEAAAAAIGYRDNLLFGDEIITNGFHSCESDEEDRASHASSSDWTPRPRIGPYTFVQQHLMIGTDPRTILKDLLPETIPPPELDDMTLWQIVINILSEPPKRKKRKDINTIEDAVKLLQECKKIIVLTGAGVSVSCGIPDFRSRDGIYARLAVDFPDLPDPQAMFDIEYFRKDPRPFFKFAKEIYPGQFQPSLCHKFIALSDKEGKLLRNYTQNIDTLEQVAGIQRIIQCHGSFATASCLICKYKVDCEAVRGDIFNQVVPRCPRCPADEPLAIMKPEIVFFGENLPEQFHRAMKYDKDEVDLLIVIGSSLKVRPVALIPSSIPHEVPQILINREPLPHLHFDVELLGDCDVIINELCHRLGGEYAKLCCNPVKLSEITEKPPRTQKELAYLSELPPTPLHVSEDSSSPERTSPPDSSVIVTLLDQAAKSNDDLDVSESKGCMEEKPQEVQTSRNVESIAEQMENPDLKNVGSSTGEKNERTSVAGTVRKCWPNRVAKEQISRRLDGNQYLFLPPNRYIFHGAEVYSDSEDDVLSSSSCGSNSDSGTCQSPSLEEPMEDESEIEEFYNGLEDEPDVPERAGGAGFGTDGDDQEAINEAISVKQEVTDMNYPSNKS

COC(=O)C1=C(C)NC(c2nccs2)=N[C@H]1c1ccc(F)cc1Cl
EC90 [1]: 0.3 µM
CC50 at 120 h [2]: > 45 µM

CCOC(=O)C1=C(CN2CCOCC2)NC(c2nccs2)=NC1c1ccc(F)cc1Br (stereo not drawn)
inhibition (Trypsin (Homo sapiens)): 4%
Drug uptake [3]: Active
Drug uptake [4]: Not Active
EC90 [1]: 0.006 µM
Drug metabolism (Mus musculus [5]): Metabolite_Notdetected
Drug metabolism (Mus musculus [6]): Metabolite_Notdetected
Drug metabolism (Canis familiaris [7]): Metabolite_Notdetected
Drug metabolism (Canis familiaris [8]): Metabolite_Notdetected
Cmax (Canis familiaris [9]): 136 ng/mL
Cmax (Canis familiaris [10]): 698 ng/mL
Cmax (Canis familiaris [11]): 1180 ng/mL
Cmax (Canis familiaris [12]): 524 ng/mL
AUC(0-t) at 24 h [13]: 4350 ng·h/mL
AUC(0-t) at 24 h [14]: 695 ng·h/mL
AUC(0-t) at 24 h [15]: 2760 ng·h/mL
AUC(0-t) at 24 h [16]: 8470 ng·h/mL
AUC at 24 h [17]: 2830 ng·h/mL
half-life [18]: 9.85 h
half-life [19]: 6.91 h
clearance [20]: 17.9 mL/min/kg
Vd [21]: 6.86 L/kg
Drug uptake [22]: Not Active
Drug uptake [23]: Not Active
inhibition [24]: -3%
inhibition (Homo sapiens [25]): 2%
inhibition [26]: 2%
inhibition [27]: -4%
Activity [28]: 2%
inhibition [29]: 4%
Activity [30]: 5%
inhibition [31]: -7%
inhibition [32]: 4%
inhibition [33]: -10%
inhibition [34]: 7%
inhibition (Homo sapiens [35]): 4%
inhibition [36]: 7%
inhibition (Homo sapiens [37]): 9%
inhibition [38]: -3%
inhibition [39]: 11%
inhibition [40]: 3%
inhibition [41]: 7%
inhibition [42]: 1%
inhibition [43]: 2%
inhibition [44]: 0%
inhibition [45]: 4%
inhibition [46]: 25%
inhibition [47]: -3%
inhibition [48]: 9%
inhibition [49]: 1%
inhibition [50]: 8%
inhibition [51]: 7%
inhibition [52]: 10%
inhibition [53]: -1%
inhibition (Homo sapiens [54]): -6%
NOAEL at 672 h [55]: 10 mg/kg
half-life (in vivo [56]): 7.32 h
half-life (in vivo [57]): 6.29 h
half-life at 168 h (in vivo [58]): 9.47 h
bioavailability (in vivo [59]): 15.6%

Cc1cn([C@@H]2C[C@@H](O)[C@H](CO)O2)c(=O)[nH]c1=O [TELBIVUDINE]
CC50 at 120 h [2]: > 200 µM
EC50 (Hepatitis B virus [60]): > 20 µM
EC50 (Hepatitis B virus [61]): > 20 µM
EC50 (Hepatitis B virus [62]): > 20 µM
EC50 (Hepatitis B virus [63]): > 20 µM
EC50 (Hepatitis B virus [64]): 0.569 µM

Nc1ncnc2c1ncn2CCOCP(=O)(O)O [ADEFOVIR]
CC50 at 120 h [2]: 200 µM
